From ChEMBL document CHEMBL3232879, “4,5,6,7-Tetrahydro-isoxazolo-[4,5-c]-pyridines as a new class of cytotoxic Hsp90 inhibitors” (Eur J Med Chem, 2014)

Experiments:
[1] = biological target: T1, Protein deacetylase HDAC6 (Homo sapiens, UniProt Q9UBN7); assay: Inhibition of human HDAC-6 using RHKK(Ac) as substrate
T1 sequence (Q9UBN7 whole entry): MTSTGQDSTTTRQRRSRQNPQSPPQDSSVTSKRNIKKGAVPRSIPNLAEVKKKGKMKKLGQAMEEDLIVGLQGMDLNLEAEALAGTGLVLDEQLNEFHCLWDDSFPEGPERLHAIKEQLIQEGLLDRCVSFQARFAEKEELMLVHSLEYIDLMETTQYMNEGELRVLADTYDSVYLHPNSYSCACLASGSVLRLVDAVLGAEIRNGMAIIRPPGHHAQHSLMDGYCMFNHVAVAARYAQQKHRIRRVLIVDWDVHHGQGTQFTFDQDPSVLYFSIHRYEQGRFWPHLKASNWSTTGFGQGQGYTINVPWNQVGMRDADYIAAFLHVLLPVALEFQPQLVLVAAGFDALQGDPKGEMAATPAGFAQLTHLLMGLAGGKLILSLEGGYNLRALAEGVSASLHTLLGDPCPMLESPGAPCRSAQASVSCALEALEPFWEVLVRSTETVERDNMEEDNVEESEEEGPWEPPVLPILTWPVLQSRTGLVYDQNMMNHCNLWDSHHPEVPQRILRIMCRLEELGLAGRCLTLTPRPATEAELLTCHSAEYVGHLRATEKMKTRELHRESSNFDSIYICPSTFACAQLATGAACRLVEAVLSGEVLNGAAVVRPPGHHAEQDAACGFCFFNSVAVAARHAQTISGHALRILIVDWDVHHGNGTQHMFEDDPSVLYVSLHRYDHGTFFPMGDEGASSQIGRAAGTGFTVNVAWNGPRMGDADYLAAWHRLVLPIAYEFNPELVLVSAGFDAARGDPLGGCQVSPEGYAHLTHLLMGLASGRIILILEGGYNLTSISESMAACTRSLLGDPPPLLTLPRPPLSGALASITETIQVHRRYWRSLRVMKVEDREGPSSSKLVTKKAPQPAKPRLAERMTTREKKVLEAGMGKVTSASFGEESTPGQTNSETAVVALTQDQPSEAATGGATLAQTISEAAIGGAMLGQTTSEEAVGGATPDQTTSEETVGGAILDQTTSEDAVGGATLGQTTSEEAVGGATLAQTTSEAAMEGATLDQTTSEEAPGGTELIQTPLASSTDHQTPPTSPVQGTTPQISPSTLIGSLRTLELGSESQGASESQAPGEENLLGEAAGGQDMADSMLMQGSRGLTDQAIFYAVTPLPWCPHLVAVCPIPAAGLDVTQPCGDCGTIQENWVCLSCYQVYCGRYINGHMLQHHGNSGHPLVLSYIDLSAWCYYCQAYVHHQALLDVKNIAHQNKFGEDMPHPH

Histone deacetylase 11 = biological target: T2, Histone deacetylase 11 (Homo sapiens, UniProt Q96DB2); assay: Inhibition of human HDAC-11 using RHKK(Ac) as substrate
T2 sequence (Q96DB2 whole entry): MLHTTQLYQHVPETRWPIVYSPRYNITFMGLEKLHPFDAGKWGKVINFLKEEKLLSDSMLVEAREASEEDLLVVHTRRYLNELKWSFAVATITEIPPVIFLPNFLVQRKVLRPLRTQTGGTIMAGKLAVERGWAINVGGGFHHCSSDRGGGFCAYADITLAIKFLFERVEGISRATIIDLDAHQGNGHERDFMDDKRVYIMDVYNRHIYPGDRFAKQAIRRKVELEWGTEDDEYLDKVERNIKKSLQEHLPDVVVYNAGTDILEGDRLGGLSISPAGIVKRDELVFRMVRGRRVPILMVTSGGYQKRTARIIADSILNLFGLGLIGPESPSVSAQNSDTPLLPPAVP

[2] = biological target: Heat shock protein HSP 90-alpha (Homo sapiens, UniProt P07900); assay: Displacement of GM-FTC from Hsp90-alpha (unknown origin) after 4 hrs by fluorescence polarization assay
[3] = biological target: Histone deacetylase 3/Nuclear receptor corepressor 2 (HDAC3/NCoR2) (Homo sapiens, UniProt O15379); assay: Inhibition of human HDAC-3/NCOR-2 using RHKK(Ac) as substrate; type: protein-complex assay
Histone deacetylase 8 = biological target: T3, Histone deacetylase 8 (Homo sapiens, UniProt Q9BY41); assay: Inhibition of human HDAC-8 using RHK(Ac)K(Ac) as substrate
T3 sequence (Q9BY41 whole entry): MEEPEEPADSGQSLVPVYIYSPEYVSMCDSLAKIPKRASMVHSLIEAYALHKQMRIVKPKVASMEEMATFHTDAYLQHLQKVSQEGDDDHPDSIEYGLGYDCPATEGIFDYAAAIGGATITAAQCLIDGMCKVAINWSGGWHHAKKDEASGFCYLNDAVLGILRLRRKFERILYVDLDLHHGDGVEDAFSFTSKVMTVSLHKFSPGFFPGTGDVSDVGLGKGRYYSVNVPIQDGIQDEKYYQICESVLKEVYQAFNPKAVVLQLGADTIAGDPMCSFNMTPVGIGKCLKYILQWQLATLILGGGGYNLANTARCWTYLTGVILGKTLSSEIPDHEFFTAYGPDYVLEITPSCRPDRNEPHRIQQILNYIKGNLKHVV

Histone deacetylase 1 = Histone deacetylase 1 (Homo sapiens, UniProt Q13547); assay: Inhibition of human HDAC-1 using RHKK(Ac) as substrate
Chain of Histone deacetylase 1 (Q13547 whole entry): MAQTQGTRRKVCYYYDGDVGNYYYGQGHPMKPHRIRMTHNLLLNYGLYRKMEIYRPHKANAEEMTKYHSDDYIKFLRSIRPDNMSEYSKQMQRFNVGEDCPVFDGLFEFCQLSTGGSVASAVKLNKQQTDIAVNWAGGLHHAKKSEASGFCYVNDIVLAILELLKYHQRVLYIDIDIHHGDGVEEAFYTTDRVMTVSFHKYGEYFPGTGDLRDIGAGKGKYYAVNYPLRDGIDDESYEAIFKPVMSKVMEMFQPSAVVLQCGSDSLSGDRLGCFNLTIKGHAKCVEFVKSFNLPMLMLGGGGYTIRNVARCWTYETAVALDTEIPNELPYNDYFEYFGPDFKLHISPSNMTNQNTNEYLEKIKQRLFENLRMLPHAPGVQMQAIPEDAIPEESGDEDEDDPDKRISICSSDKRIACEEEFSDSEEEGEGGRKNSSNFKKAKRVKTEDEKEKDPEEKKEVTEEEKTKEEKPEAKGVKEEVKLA

Chain of Histone deacetylase 3/Nuclear receptor corepressor 2 (HDAC3/NCoR2) (O15379 whole entry): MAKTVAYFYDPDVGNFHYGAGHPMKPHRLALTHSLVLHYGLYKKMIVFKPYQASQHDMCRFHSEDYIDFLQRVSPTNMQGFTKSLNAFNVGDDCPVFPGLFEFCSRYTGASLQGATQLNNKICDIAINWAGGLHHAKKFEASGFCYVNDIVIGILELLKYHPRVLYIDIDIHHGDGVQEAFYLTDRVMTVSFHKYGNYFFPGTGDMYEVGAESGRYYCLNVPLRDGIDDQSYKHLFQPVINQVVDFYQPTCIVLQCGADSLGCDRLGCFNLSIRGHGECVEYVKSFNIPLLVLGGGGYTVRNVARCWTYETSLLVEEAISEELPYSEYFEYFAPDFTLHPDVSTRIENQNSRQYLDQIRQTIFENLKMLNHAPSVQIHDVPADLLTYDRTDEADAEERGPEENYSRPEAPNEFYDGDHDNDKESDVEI
Chain of Histone deacetylase 3/Nuclear receptor corepressor 2 (HDAC3/NCoR2) (Q9Y618 whole entry, further chain): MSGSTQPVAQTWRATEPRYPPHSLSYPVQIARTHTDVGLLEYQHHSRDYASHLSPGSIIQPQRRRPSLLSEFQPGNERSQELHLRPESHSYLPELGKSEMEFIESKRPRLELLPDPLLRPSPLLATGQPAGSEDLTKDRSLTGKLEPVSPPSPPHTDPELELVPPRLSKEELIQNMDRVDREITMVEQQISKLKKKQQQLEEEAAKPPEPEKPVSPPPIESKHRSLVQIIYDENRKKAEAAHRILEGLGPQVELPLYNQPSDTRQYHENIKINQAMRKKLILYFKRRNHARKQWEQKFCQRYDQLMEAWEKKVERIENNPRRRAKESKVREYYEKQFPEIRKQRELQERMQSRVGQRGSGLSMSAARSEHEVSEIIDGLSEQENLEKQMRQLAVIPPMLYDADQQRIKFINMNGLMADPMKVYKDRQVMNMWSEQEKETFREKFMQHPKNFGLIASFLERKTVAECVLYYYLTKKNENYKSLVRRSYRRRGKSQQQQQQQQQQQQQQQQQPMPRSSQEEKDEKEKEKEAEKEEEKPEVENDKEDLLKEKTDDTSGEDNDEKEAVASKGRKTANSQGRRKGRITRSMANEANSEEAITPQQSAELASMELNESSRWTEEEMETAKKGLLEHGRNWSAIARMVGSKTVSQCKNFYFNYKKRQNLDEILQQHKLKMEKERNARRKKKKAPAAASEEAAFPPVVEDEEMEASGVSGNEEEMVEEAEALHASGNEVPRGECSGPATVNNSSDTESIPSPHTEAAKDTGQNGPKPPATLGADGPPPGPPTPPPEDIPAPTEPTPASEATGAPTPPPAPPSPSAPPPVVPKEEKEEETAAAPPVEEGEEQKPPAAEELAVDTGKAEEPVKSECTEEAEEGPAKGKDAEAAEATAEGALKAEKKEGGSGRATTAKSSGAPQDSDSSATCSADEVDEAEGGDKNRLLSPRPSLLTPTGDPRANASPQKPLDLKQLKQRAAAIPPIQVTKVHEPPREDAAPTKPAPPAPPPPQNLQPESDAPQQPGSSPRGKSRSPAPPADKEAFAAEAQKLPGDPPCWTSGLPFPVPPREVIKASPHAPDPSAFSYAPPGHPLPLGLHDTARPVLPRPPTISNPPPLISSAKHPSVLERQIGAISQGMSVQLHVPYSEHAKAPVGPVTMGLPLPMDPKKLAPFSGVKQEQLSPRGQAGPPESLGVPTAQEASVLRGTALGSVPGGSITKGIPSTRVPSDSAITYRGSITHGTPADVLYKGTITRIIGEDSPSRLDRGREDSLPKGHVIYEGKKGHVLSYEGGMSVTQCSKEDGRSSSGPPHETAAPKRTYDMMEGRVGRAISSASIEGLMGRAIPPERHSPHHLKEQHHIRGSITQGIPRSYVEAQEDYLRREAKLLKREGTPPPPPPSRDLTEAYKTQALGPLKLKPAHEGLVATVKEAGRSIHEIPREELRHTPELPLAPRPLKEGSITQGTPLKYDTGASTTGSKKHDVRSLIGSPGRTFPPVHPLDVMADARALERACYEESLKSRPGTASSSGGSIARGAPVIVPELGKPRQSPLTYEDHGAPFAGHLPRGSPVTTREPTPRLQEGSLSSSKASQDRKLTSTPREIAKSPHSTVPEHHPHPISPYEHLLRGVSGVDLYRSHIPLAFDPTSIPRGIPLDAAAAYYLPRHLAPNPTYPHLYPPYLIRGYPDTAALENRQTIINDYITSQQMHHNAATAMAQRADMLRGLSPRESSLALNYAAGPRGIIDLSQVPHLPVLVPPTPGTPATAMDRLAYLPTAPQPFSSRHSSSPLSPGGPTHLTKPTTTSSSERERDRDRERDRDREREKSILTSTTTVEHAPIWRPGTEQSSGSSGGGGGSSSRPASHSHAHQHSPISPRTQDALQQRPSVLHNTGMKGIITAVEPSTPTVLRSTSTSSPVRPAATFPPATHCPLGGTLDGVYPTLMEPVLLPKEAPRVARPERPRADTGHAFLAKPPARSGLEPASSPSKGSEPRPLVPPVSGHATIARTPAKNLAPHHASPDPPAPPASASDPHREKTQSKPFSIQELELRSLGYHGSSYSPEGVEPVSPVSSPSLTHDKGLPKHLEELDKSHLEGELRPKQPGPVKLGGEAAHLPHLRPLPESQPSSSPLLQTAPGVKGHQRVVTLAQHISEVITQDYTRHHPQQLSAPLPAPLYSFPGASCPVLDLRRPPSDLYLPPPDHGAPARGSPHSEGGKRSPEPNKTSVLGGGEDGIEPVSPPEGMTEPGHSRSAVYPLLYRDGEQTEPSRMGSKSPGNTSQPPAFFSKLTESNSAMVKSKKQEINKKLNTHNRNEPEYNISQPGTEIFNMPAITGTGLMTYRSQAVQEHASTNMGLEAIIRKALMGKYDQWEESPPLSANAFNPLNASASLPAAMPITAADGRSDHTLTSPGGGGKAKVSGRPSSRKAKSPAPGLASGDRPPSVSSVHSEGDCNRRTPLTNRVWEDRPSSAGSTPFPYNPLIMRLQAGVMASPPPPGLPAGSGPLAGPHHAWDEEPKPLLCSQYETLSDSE

## CC(C)c1cc(C(=O)N2CCc3onc(C(=O)NCCCCCCC(=O)NO)c3C2)c(O)cc1O
[1]
  IC50: 4.1 nM
Histone deacetylase 11
  IC50: 521 nM
[2]
  IC50: 33 nM
[3]
  IC50: 4230 nM
Histone deacetylase 8
  IC50: 1760 nM
Histone deacetylase 1
  IC50: 2030 nM
